System: EpidermFT™ Skin Model (EFT-400) full thickness skin cultures
Test: Affymetrix GeneChip HG U133 Plus 2.0 microarray global gene expression, agent-exposed vs untreated skin cultures
Assay type: cell-based, human
Conditions: Salicin 0.5% vs Untreated Control

Structure (SMILES): OCc1ccccc1O[C@@H]1O[C@H](CO)[C@@H](O)[C@H](O)[C@H]1O [Salicin, 2-(Hydroxymethyl)phenyl β-D-glucospyranoside]
- Fold change TMEM38B (222736_s_at) (24 hr treatment): 2.316
- Fold change TMEM39A (218615_s_at) (24 hr treatment): 2.497
- Fold change TMEM39A (222690_s_at) (24 hr treatment): 2.47
- Fold change TMTC1 (226322_at) (24 hr treatment): 2.647
- Fold change TMTC1 (226931_at) (24 hr treatment): 2.583
- Fold change TNC (216005_at) (24 hr treatment): 2.719
- Fold change TNFAIP6 (206026_s_at) (24 hr treatment): 2.52
- Fold change TNIP3 (220655_at) (24 hr treatment): 2.654
- Fold change TRPA1 (217590_s_at) (24 hr treatment): 2.602
- Fold change TRPC4 (224220_x_at) (24 hr treatment): 2.708
- Fold change UBE2B (239163_at) (24 hr treatment): 2.636
- Fold change UGCGL2 (218801_at) (24 hr treatment): 2.4
- Fold change UST (205139_s_at) (24 hr treatment): 2.454
- Fold change WIPI1 (203827_at) (24 hr treatment): 2.744
- Fold change XPO1 (235927_at) (24 hr treatment): 2.529
- Fold change ZFAND5 (217649_at) (24 hr treatment): 2.438
- Fold change ZFP36L1 (211965_at) (24 hr treatment): 2.705
- Fold change ZNF281 (228785_at) (24 hr treatment): 2.627
- Fold change ZNF331 (219228_at) (24 hr treatment): 2.442
- Fold change ZNF697 (227080_at) (24 hr treatment): 2.599
- Fold change ABCD3 (202850_at) (24 hr, direction down): 2.077
- Fold change ABCG4 (207593_at) (24 hr, direction down): 2.004
- Fold change ACACA (212186_at) (24 hr, direction down): 2.091
- Fold change ACAD9 (224160_s_at) (24 hr, direction down): 2.034
- Fold change ACOX3 (204241_at) (24 hr, direction down): 2.001
- Fold change ADAMTSL4 (226071_at) (24 hr, direction down): 2.137
- Fold change ADARB1 (203865_s_at) (24 hr, direction down): 2.089
- Fold change AHNAK (211986_at) (24 hr, direction down): 2.023
- Fold change AIF1L (223075_s_at) (24 hr, direction down): 2.169
- Fold change AK1 (202587_s_at) (24 hr, direction down): 2.078
- Fold change AK3L1 /// AK3L2 (204347_at) (24 hr, direction down): 2.026
- Fold change ALDH5A1 (203609_s_at) (24 hr, direction down): 2.111
- Fold change ALOX12 (207206_s_at) (24 hr, direction down): 2.124
- Fold change AMACR (209426_s_at) (24 hr, direction down): 2.021
- Fold change AMOTL2 (203002_at) (24 hr, direction down): 2.089
- Fold change ANK3 (207950_s_at) (24 hr, direction down): 2.049
- Fold change APPL2 (218218_at) (24 hr, direction down): 2.013
- Fold change AQP3 (203747_at) (24 hr, direction down): 2.032
- Fold change ARHGAP27 (225618_at) (24 hr, direction down): 2.077
- Fold change ARL17 /// ARL17P1 (1555964_at) (24 hr, direction down): 2.016
- Fold change ARPC1A (200950_at) (24 hr, direction down): 2.042
- Fold change ASAP3 (222236_s_at) (24 hr, direction down): 2.079
- Fold change ATP2B4 (212136_at) (24 hr, direction down): 2.118
- Fold change ATXN3 (205416_s_at) (24 hr, direction down): 2.164
- Fold change BAIAP2 (205293_x_at) (24 hr, direction down): 2.03
- Fold change BCL11A (1559078_at) (24 hr, direction down): 2.151
- Fold change BCL11B (222895_s_at) (24 hr, direction down): 2.021
- Fold change BICD2 (1553021_s_at) (24 hr, direction down): 2.09
- Fold change BLCAP (201032_at) (24 hr, direction down): 2.077
- Fold change C1orf46 (216718_at) (24 hr, direction down): 2.083
- Fold change C1orf71 (225551_at) (24 hr, direction down): 2.006
- Fold change C1orf97 (224443_at) (24 hr, direction down): 2.02
- Fold change C2orf7 (223312_at) (24 hr, direction down): 2.047
- Fold change C4orf3 (224605_at) (24 hr, direction down): 2.002
- Fold change C6orf105 (215100_at) (24 hr, direction down): 2.121
- Fold change C12orf29 (228378_at) (24 hr, direction down): 2.164
- Fold change C15orf52 (227272_at) (24 hr, direction down): 2.042
- Fold change C17orf67 (236863_at) (24 hr, direction down): 2.03
- Fold change C20orf177 (225313_at) (24 hr, direction down): 2.134
- Fold change CALM1 /// CALM2 /// CALM3 (200653_s_at) (24 hr, direction down): 2.056
- Fold change CALM1 /// CALM2 /// CALM3 (209563_x_at) (24 hr, direction down): 2.029
- Fold change CAT (211922_s_at) (24 hr, direction down): 2.095
- Fold change CENPT (218148_at) (24 hr, direction down): 2.074
- Fold change CEP76 (52285_f_at) (24 hr, direction down): 2.004
- Fold change CERK (218421_at) (24 hr, direction down): 2.138
- Fold change CKB (200884_at) (24 hr, direction down): 2.055
- Fold change CLCN5 (232127_at) (24 hr, direction down): 2.126
- Fold change CLDN7 (202790_at) (24 hr, direction down): 2.043
- Fold change CLIP1 (1558924_s_at) (24 hr, direction down): 2.123
- Fold change CLN8 (229958_at) (24 hr, direction down): 2.102
- Fold change CNDP2 (217752_s_at) (24 hr, direction down): 2.002
- Fold change CNTN1 (211203_s_at) (24 hr, direction down): 2.105
- Fold change CSNK2A2 (203575_at) (24 hr, direction down): 2.095
- Fold change CTAGE4 (215549_x_at) (24 hr, direction down): 2.108
- Fold change CXCL12 (203666_at) (24 hr, direction down): 2.074
- Fold change CYB5R1 (202263_at) (24 hr, direction down): 2.119
- Fold change CYCS (244546_at) (24 hr, direction down): 2.168
- Fold change DBI (211070_x_at) (24 hr, direction down): 2.056
- Fold change DDR1 (1007_s_at) (24 hr, direction down): 2.104
- Fold change DDX50 (1568815_a_at) (24 hr, direction down): 2.115
- Fold change DHRS4 /// DHRS4L2 (218021_at) (24 hr, direction down): 2.062
- Fold change DMD (203881_s_at) (24 hr, direction down): 2.165
- Fold change DOPEY2 (205248_at) (24 hr, direction down): 2.103
- Fold change ELOVL3 (234513_at) (24 hr, direction down): 2.048
- Fold change EPCAM (201839_s_at) (24 hr, direction down): 2.093
- Fold change EPHB4 (202894_at) (24 hr, direction down): 2.087
- Fold change EPHB6 (204718_at) (24 hr, direction down): 2.036
- Fold change ERI2 (213365_at) (24 hr, direction down): 2.167
- Fold change F2RL1 (206429_at) (24 hr, direction down): 2.099
- Fold change FAM33A (225684_at) (24 hr, direction down): 2.022
- Fold change FAR1 (224865_at) (24 hr, direction down): 2.117
- Fold change FBXO3 (229955_at) (24 hr, direction down): 2.107
- Fold change FBXO3 (238686_at) (24 hr, direction down): 2.147
- Fold change FBXO9 (212991_at) (24 hr, direction down): 2.083
- Fold change FBXO9 (1559094_at) (24 hr, direction down): 2.099
- Fold change FIGNL1 (222843_at) (24 hr, direction down): 2.071
- Fold change FKBP1B (206857_s_at) (24 hr, direction down): 2.113
- Fold change FKBPL (219187_at) (24 hr, direction down): 2.09
- Fold change FRAG1 (41858_at) (24 hr, direction down): 2.049
- Fold change FUCA1 (202838_at) (24 hr, direction down): 2.147
- Fold change FUT2 (210608_s_at) (24 hr, direction down): 2.05
- Fold change GAB1 (225998_at) (24 hr, direction down): 2.071
- Fold change GAS7 (202192_s_at) (24 hr, direction down): 2.035
- Fold change GDAP1 (226269_at) (24 hr, direction down): 2.153
- Fold change GNG4 (205184_at) (24 hr, direction down): 2.054
- Fold change GPR1 (214605_x_at) (24 hr, direction down): 2.109
- Fold change GPR137B (204137_at) (24 hr, direction down): 2.046
- Fold change GSN (200696_s_at) (24 hr, direction down): 2.089
- Fold change HES5 (239230_at) (24 hr, direction down): 2.078
- Fold change HIGD1A (217845_x_at) (24 hr, direction down): 2.017
- Fold change HN1 (222396_at) (24 hr, direction down): 2.105
- Fold change HN1L (212115_at) (24 hr, direction down): 2.003
- Fold change HSDL2 (209512_at) (24 hr, direction down): 2.126
- Fold change ID2 (201565_s_at) (24 hr, direction down): 2.158
